Test results reported in patent publication EP0009547A1, “Fluoramphenicol esters, chemotherapeutic preparations containing them and process for their preparation” (F. HOFFMANN-LA ROCHE & CO. Aktiengesellschaft, priority 1978, dated 1980).
Where a name gives a salt, the structure may show the parent alone. Read-outs that look alike come from different tables or passages of the source.

Columns and labels:
Metabolic stability = format: in vitro ADME; conditions: stated in contrast to Chloramphenicol
[1] = Water solubility (observation on the isolated product); format: physicochemical; conditions: in Wasser, result in words
Streptococcos pyogenes = assay: In vivo activity (mouse), infection with Streptococcos pyogenes; conditions: po, Maus, p.o., gegen Streptococcos pyogenes, hydrochloride form, read-out: In-vivo-Aktivität (Maus) (CD50 p.o.)
Salmonella typhimurium = assay: In vivo activity (mouse), infection with Salmonella typhimurium; conditions: Salmonella enterica, po; Maus, p.o., gegen Salmonella typhimurium; hydrochloride form; read-out: In-vivo-Aktivität (Maus) (CD50 p.o.)
[2] = Hydrolytic cleavage of the ester at physiological pH; format: physicochemical; conditions: bei physiologischem pH
[3] = test system: Pseudomonas aeruginosa BA; assay: In vivo activity (mouse), infection with Pseudomonas aeruginosa BA; conditions: po; Maus, p.o., gegen Pseudomonas aeruginosa BA; hydrochloride form; read-out: In-vivo-Aktivität (Maus) (CD50 p.o.)
Acute toxicity (mouse) = conditions: in vivo, read-out: Akute Toxizität (Maus): LD50
Escherichia coli = assay: In vivo activity (mouse), infection with Escherichia coli; conditions: po; Maus, p.o., gegen Escherichia coli; hydrochloride form; read-out: In-vivo-Aktivität (Maus) (CD50 p.o.)

## O=C(N[C@H](CO)[C@H](O)c1ccc([N+](=O)[O-])cc1)C(F)F [Fluoramphenicol, D-threo-1-(p-Nitrophenyl)-2-difluor-Mez/3.5.1979 acetamino-l,3-propandiol]
Metabolic stability
  Metabolische Beständigkeit: metabolisch beständig

## C[C@H](N)C(=O)OC[C@@H](NC(=O)C(F)F)[C@H](O)c1ccc([N+](=O)[O-])cc1 [Fluoramphenicol-3-(L-alaninester)-hydrochlorid]
[1]
  Wasserlöslichkeit: sehr gut wasserlösliches

## NCC(=O)OC[C@@H](NC(=O)C(F)F)[C@H](O)c1ccc([N+](=O)[O-])cc1 [Fluoramphenicol-3-glycinester, Fluoramphenicol-3-(glycinester)-hydrochlorid]
Streptococcos pyogenes
  ED50: 27 mg/kg
Salmonella typhimurium
  ED50: 12 mg/kg
[2]
  Hydrolytische Spaltung: sofort hydrolytisch zu wirksamem Fluoramphenicol gespalten
[3]
  ED50: 47 mg/kg
Acute toxicity (mouse); po
  LD50: > 5000 mg/kg
Acute toxicity (mouse); sc
  LD50: 2000 to 4000 mg/kg
Escherichia coli
  ED50: 23 mg/kg

## O=C(O)CCC(=O)OC[C@@H](NC(=O)C(F)F)[C@H](O)c1ccc([N+](=O)[O-])cc1 [Fluoramphenicol-3-monosuccinat-natriumsalz]
[1]
  Wasserlöslichkeit: sehr gut wasserlösliches

## CCCCCCCCCCCCCCCC(=O)OC[C@@H](NC(=O)C(F)F)[C@H](O)c1ccc([N+](=O)[O-])cc1 [Fluoramphenicol-3-palmitat]
[1]
  Wasserlöslichkeit: in Wasser praktisch unlösliche
